# Source: ChEMBL document CHEMBL1201862, “PubChem BioAssay data set” (2004)
# Activity calls are given as the source filed them.
# How the values were obtained:
# [1] = target: T1, Ubiquitin-conjugating enzyme E2 N (Homo sapiens, UniProt P61088); format: functional
# T1 sequence (P61088 whole entry): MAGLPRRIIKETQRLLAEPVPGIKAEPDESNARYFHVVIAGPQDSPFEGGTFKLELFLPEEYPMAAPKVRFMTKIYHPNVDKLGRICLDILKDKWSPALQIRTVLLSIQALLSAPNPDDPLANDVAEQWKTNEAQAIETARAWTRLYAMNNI
# Bcl-2-related protein A1 = target: T2, Bcl-2-related protein A1 (Mus musculus, UniProt Q07440); format: functional;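 further: confirmatory dose–response counterscreen on Bfl-1, used to check hits from a UBC13 polyubiquitin inhibitor campaign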
# T2 sequence (Q07440 whole entry): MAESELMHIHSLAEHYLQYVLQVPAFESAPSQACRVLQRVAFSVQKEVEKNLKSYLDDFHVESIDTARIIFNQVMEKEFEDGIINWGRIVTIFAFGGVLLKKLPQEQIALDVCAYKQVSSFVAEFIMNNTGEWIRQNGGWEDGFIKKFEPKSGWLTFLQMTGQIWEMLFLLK
# [2] = Trypanosoma cruzi growth suppression in host cells – NIH3T3 host cells, beta-gal luminescence, confirmation (AID 2044); format: functional, cell-based;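 further: intracellular parasites grown in NIH/3T3 mouse fibroblasts as host cells; luminescent beta-galactosidase reporter signal from transgenic T. cruzi replicating inside host cells; inhibitors lower the luminescence signal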
# [3] = target: T1, Ubiquitin-conjugating enzyme E2 N; format: functional; remark: listed apart in the source
# [4] = NIH3T3 cell viability loss – ATP luminescence, mouse fibroblasts, counter-screen, dose response (AID 2010); format: functional, cell-based;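 further: cells exposed to compound for about 90 hours before reading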
# [5] = Luminescence Cell-Based Dose Retest to Confirm Inhibitors of Cancer Stem Cells. [Related pubchem assays (depositor defined):AID2717, AID2721]; format: functional; settings: Homo sapiens
# [6] = viability of HCT116 lacking mutant beta-catenin – cell-based, human colon tumor, dose response (AID 1045); format: functional;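 further: HCT116 colon tumor cells with beta catenin knocked out; cells exposed to compound for 60 hours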
# [7] = viability of PTEN-deleted HCT116 cells – cell-based, HCT116 PTEN knockout, dose response (AID 1047); format: functional;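 further: HCT116 colon tumor cells with PTEN knocked out; cells exposed to compound for 60 hours before readout; potency for loss of cell viability measured by luminescence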
# Cytochrome P450 2C19 = Cytochrome P450 2C19 (Homo sapiens, UniProt P33261); assay: Cytochrome panel assay with activity outcomes. Panel member name: p450-cyp2c19 Compounds with AC50 equal or less than 10 uM are considered active; format: functional; settings: read-out: AC50
# Cytochrome P450 2C19, sequence (P33261 whole entry): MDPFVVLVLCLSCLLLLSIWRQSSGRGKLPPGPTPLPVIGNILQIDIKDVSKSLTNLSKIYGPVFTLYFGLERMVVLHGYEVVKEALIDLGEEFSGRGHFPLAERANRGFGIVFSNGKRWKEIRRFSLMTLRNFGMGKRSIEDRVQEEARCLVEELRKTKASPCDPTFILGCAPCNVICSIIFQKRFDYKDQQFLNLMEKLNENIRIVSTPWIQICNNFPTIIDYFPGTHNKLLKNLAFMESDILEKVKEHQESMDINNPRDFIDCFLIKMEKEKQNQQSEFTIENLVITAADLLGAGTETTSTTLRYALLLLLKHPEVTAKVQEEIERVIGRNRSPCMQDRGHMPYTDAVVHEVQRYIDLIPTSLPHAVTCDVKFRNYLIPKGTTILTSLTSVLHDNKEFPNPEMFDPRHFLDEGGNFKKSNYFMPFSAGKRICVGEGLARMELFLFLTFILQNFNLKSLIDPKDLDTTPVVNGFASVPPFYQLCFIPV
# Nonstructural protein 1 = Nonstructural protein 1 (Influenza A virus, UniProt Q194T2); format: functional, Influenza A virus (A/California/07/2009(H1N1))
# Nonstructural protein 1, sequence (Q194T2 whole entry): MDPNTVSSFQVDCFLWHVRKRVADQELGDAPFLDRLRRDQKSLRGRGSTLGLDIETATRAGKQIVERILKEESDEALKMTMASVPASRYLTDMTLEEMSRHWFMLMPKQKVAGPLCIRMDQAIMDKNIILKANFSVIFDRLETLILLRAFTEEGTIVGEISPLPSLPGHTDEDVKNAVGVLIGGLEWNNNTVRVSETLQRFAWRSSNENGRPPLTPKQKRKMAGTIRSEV
# [8] = target: T3, Rac GTPase-activating protein 1 (Homo sapiens, UniProt Q9H0H5); assay: blockers of MgcRacGAP-driven Rac1 GTP hydrolysis – biochemical, ADP Hunter fluorescence, primary and confirmatory, confirmation (AID 624330); format: functional
# T3 sequence (Q9H0H5 whole entry): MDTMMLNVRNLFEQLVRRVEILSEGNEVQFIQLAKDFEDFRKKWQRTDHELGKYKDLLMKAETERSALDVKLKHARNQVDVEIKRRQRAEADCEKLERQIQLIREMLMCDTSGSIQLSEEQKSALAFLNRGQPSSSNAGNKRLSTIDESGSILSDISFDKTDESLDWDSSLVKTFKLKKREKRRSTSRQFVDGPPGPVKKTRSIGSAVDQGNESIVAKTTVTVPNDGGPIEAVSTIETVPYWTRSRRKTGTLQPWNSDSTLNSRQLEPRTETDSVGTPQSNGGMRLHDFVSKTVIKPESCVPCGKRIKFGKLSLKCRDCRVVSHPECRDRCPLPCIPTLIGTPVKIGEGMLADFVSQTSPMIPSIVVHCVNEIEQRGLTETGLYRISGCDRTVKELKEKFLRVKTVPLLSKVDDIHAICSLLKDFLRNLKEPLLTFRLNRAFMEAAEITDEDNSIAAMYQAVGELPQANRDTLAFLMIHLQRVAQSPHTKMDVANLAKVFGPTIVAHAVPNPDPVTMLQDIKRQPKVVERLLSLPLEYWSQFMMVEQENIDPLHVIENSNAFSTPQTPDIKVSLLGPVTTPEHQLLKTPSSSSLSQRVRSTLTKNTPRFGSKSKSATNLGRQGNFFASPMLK
# [9] = target: T4, RNA-binding protein pos-1 (Caenorhabditis elegans, UniProt G5EF15); assay: disruptors of C. elegans POS-1 RNA interaction – biochemical, fluorescence polarization, dose response (AID 1964);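 further: purified POS-1 fused to maltose binding protein made in E. coli; potency of compounds blocking POS-1 binding to fluorescent RNA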
# T4 sequence (G5EF15 whole entry): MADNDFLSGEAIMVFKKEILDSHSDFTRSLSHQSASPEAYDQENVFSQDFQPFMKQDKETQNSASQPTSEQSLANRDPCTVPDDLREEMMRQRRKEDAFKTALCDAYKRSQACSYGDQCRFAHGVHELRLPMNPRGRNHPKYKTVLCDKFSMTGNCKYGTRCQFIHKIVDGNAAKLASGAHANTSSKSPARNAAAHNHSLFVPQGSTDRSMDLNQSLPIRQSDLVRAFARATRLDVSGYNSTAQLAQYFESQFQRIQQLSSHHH
# [10] = target: T5, Zinc finger protein mex-5 (Caenorhabditis elegans, UniProt Q9XUB2); assay: potency of MEX-5 RNA-binding blockers – biochemical, C. elegans, fluorescence polarization, dose response (AID 1960)
# T5 sequence (Q9XUB2 whole entry): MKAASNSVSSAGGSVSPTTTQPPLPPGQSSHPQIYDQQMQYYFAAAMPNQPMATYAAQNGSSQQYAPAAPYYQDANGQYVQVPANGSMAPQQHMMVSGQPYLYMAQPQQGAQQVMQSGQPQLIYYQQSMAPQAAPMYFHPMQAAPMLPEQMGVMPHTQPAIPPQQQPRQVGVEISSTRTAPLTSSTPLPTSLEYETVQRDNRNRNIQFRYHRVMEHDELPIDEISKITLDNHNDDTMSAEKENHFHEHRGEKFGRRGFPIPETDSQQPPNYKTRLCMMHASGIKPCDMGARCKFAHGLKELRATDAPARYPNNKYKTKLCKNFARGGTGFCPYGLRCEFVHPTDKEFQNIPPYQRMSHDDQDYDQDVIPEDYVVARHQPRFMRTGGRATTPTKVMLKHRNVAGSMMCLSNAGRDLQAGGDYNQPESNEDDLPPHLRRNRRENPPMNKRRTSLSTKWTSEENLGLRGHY
# cells = format: functional
# [11] = Luminescence Cell-Based Dose Response HTS to Identify Inhibitors of 5'UTR Stem-Loop Driven Prion Protein mRNA Translation in H4 Neuroglioblastoma Cells. [Related pubchem assays: 1827 (Project Summary), 1813 (Primary HTS)]; format: functional
# [12] = alpha-synuclein stem-loop luciferase translation blockers – H4 neuroglioma cells, luminescence, confirmation (AID 1988); format: functional, cell-based
# [13] = luciferase reporter signal suppression in cells – H4 neuroglioma cells, luminescence, dose response (AID 1990); format: functional, cell-based
# [14] = blockers of HIV-1 envelope-mediated cell-cell fusion – cherry-pick, dose response (AID 652057); format: functional, cell-based
# [15] = HIV-1 AD8 envelope cell-cell fusion blockers – cherry-pick, dose response (AID 652062); format: functional, cell-based;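 further: luciferase signal from cell-cell fusion driven by HIV-1 clade B AD8 Env; potency is for inhibitors of fusion seen as a drop in luminescence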
smiles,measurement,setting,value
O=C(CCCCn1c(=O)c2ccccc2n(Cc2ccccc2)c1=O)NC1CCN(Cc2ccccc2)CC1,IC50,[1],5.17 µM (active)
same,IC50,Bcl-2-related protein A1,> 20 µM (inactive)
same,EC50,[2],0.695 µM (active)
same,IC50,[3],9.28 µM (active)
same,EC50,[4],> 60 µM (not active)
O=C1c2cccc3cccc(c23)C(=O)N1CCN1CCN(CC(O)COc2ccc3ccccc3c2)CC1 (stereo unspecified),AC50,[5],5.08 µM (active)
same,EC50,[6],9.47 µM (active)
same,IC50,[1],3.02 µM (active)
same,IC50,Bcl-2-related protein A1,> 20 µM (inactive)
same,IC50,[3],2.49 µM (active)
same,EC50,[7],12 µM (active)
CCNc1nc(NCC)nc(N(C)N)n1,AC50,Cytochrome P450 2C19,0.00141 µM (inconclusive)
same,IC50,Nonstructural protein 1,12.7 µM (active)
CCOC(=O)/C(C#N)=C1/C(=O)N(Cc2ccccc2)c2ccccc21,IC50,Nonstructural protein 1,99.6 µM (active)
same,IC50,[8],61 µM (active)
N=C1c2ccccc2CN1NC(=O)CC12CC3CC(CC(C3)C1)C2,EC50,[9],> 300 µM (not active)
same,EC50,[10],> 300 µM (not active)
Cc1cccc(NC(=O)c2cc3ccccc3o2)c1,IC50,cells,40.5 µM (active)
C=CCOc1ccc(CNc2ccc(NC(=O)CCC)cc2)cc1OCC,IC50,Nonstructural protein 1,> 100 µM (active)
Cc1cccc(OCCCCc2c(C)n[nH]c2C)c1,IC50,cells,9.67 µM (active)
CN(C)c1ccc(/C=C2\N=C(C(C)(C)C)OC2=O)cc1,IC50,cells,11.3 µM (active)
same,EC50,[9],7.17 µM (active)
same,EC50,[10],22.3 µM (inconclusive)
CC1(C)Cc2c(sc(NC(=O)COc3ccc(Cl)cc3Cl)c2C(N)=O)C(C)(C)N1,EC50,[11],18.7 µM (active)
same,IC50,[1],2.86 µM (active)
same,IC50,Bcl-2-related protein A1,> 20 µM (inactive)
same,IC50,[3],4.55 µM (active)
same,EC50,[12],> 120 µM (not active)
same,EC50,[13],17.3 µM (active)
O=C(CNCc1ccccn1)Nc1cc(S(=O)(=O)N2CCCCC2)ccc1Cl,IC50,Nonstructural protein 1,6.83 µM (active)
CCN=C(S)N=Nc1c(O)[nH]c2ccc(C(C)C)cc12,IC50,[1],2.49 µM (active)
same,IC50,Bcl-2-related protein A1,> 20 µM (inactive)
same,IC50,[3],6.7 µM (active)
O=C(CCCCn1c(=O)c2ccccc2n(Cc2ccccc2F)c1=O)NC1CCN(Cc2ccccc2)CC1,IC50,[1],5.47 µM (active)
same,IC50,Bcl-2-related protein A1,> 20 µM (inactive)
same,IC50,[3],11.3 µM (active)
COCCN=C(S)N=Nc1c(O)[nH]c2c(C)cc(C)cc12,IC50,[1],0.561 µM (active)
same,IC50,Bcl-2-related protein A1,> 20 µM (inactive)
same,IC50,[3],6.28 µM (active)
COC(=O)c1ccc(-n2c(CCC(=O)O)ccc2-c2ccccc2)cc1,EC50,[9],> 300 µM (not active)
same,EC50,[10],> 300 µM (not active)
CCc1ccc(NC(=O)/C(C#N)=C/c2cc3ccc(C)cc3nc2N2CCOCC2)cc1,EC50,[9],47.9 µM (active)
same,EC50,[10],113 µM (active)
Cc1nn(C(C)C(=O)N2CCOCC2)c(=O)c2nn(-c3ccccc3)c(C)c12 (stereo unspecified),EC50,[9],> 300 µM (not active)
same,EC50,[10],> 300 µM (not active)
O=C(NNc1nc2cc3c(cc2s1)OCCO3)c1ccccc1,IC50,cells,48.3 µM (active)
C#CCOCCOCCOCCNc1nc(N2CCN(C(=O)[C@H](CCCCN)n3cc(CN)nn3)CC2)nc(N2CCN(C(=O)[C@H](CCC(=O)O)n3cc([C@@H](N)CCCCN)nn3)CC2)n1,IC50,[1],2.79 µM (active)
same,IC50,Bcl-2-related protein A1,> 20 µM (inactive)
same,IC50,[3],2.85 µM (active)
same,IC50,[8],190 µM (active)
COc1ccc(-c2sc3ccccc3c2-c2ccc(OCCN3CCOCC3)cc2)cc1,AC50,[5],0.842 µM (active)
same,IC50,[1],> 20 µM (inactive)
same,IC50,Bcl-2-related protein A1,> 20 µM (inactive)
same,IC50,[3],15.1 µM (active)
CC1(C)SC2C(C(=O)O)N=C(Cc3ccccc3)N2C1C(=O)O (stereo unspecified),IC50,Nonstructural protein 1,12.2 µM (active)
Cc1ccc(S(=O)(=O)N[C@H]2C=C[C@H](CC(=O)N3CCC(Cc4ccccc4)CC3)O[C@H]2CO)cc1,AC50,[14],69.4 µM (active)
same,AC50,[15],34.3 µM (active)
COc1cccc(NC(=O)N(C)C[C@@H]2OCc3ccccc3-c3c(n(C)c4ccccc34)C(=O)N([C@@H](C)CO)C[C@@H]2C)c1,AC50,[14],< 0.26 µM (active)
same,AC50,[15],< 0.26 µM (active)
CCOC(=O)N/N=C\c1ccc([N+](=O)[O-])s1,IC50,cells,34 µM (active)
Cc1ccc(/C=N/NC(=O)c2ccncc2)o1,IC50,cells,1.18 µM (active)
